Target: GABAA receptor α2 subunit (α2β3γ2 GABAAR) (Rattus norvegicus, UniProt P18508+P23576)
Experiment: [3H]Ro […]-4513 displacement on HEK293 membranes
Assay type: binding

Chain of GABAA receptor α2 subunit (α2β3γ2 GABAAR) (P23576 29-451): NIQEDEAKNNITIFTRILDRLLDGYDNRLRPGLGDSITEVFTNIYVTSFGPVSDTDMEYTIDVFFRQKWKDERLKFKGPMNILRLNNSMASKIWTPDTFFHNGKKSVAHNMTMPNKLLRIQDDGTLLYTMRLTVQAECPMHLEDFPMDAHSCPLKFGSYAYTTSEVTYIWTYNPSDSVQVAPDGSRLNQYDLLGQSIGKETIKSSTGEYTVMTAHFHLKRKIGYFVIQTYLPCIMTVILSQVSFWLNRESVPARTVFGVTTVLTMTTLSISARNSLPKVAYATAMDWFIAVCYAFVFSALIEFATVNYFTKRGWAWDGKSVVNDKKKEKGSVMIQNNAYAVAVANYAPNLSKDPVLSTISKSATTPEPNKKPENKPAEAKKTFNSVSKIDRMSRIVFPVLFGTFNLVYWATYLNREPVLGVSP
Chain of GABAA receptor α2 subunit (α2β3γ2 GABAAR) (P18508 39-466): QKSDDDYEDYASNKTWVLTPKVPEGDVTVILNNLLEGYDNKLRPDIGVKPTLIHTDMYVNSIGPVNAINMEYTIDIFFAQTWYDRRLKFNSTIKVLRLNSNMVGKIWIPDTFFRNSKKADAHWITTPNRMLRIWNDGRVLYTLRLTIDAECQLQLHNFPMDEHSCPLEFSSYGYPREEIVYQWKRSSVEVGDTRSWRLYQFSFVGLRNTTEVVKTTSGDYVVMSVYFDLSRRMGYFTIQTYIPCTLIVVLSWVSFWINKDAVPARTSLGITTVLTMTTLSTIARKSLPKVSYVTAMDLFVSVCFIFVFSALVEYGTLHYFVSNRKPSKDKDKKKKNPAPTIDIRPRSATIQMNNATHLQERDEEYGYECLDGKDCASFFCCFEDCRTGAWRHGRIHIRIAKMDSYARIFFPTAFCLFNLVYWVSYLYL
Chain of GABAA receptor α2 subunit (α2β3γ2 GABAAR) (P63079 26-473 partner): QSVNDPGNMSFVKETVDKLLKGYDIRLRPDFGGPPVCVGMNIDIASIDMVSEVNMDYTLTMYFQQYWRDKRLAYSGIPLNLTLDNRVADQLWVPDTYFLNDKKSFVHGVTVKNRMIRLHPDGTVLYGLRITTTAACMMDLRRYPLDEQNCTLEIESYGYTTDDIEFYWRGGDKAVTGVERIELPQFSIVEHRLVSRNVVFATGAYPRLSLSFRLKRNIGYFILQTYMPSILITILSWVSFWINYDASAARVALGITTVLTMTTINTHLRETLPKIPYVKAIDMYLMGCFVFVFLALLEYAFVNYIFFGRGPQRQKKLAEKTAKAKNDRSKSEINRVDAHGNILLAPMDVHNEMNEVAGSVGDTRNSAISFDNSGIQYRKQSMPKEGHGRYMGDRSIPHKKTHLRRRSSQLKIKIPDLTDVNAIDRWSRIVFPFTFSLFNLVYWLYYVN

## C#Cc1ccc2c(c1)C(c1ccccn1)=NCc1c(C(=O)OCC)ncn1-2 [compound 2 in Rivas et al, 2009, ethyl 8-ethynyl-6-(pyridin-2-yl)-4H-benzo[f]imidazo[1,5-a][1,4]diazepine-3-carboxylate]
  Ki: 0.221 ± 0.022 µM
